Measured values published in patent US7390910B2, “Compounds for treating tumors” (priority 2003, dated 2008).
Marks after values point to notes of the source that are not given here. Where a SMILES comes first, the peptide text is derived from it. [ ]: non-standard residue; d: D form. The star is where a group is joined. NMePhe(β,β-Me2) = CN[C@H](C(=O)O)C(C)(C)c1ccccc1; Tle = CC(C)(C)[C@H](N)C(=O)O; NMeV = CN[C@H](C(=O)O)C(C)C; NHBn = c1ccc(CN*)cc1

Tests used:
[1] = tested on: bovine microtubule-associated protein (MAP)-rich tubulin; format: biochemical
Experimental: Tubulin Polymerization Assays. For in vitro tubulin polymerization assays, bovine microtubule-associated protein (MAP)-rich tubulin, PEM buffer [80 mM Na-PIPES (pH 6.9), 1 mM MgCl2, and 1 mM EGTA], and GTP are purchased from Cytoskeleton (Denver, Colo.). MAP-rich tubulin (final concentration 1.5 mg/ml) is dissolved in cold PEM buffer containing 1 mM GTP (GPEM) and centrifuged at 12,000×g for 10 min at 4° C. The tubulin solution (100 μl/well) is added rapidly to wells of a low-volume, 96-well plate already containing duplicate aliquots (10 μl) of test compounds in GPEM. […] Control wells contained the same final concentration of DMSO (0.3%). After initiation of the reaction, absorbance at 340 nm is measured every minute for 60 min at 24° C. using a SpectraMax Plus plate reader (Molecular Devices, Sunnyvale, Calif.).

KBV1 = assay: cells; format: cell-based; details: for IC50: 3 days, SRB; for inhibition at 3 µM: KB-V1, 3000 nM
Experimental: (§1) Cell Survival Assay: Standard Pharmacological Test Procedure. […] Compounds are incubated with cells for 3 days.

KB cells = assay: cells; format: cell-based; details: 3 days, SRB
Experimental: as §1

KB85 = assay: cells; format: cell-based; details: 3 days, SRB
Experimental: as §1

SMILES | Tubulin Polym. % inhibition at 0.3 uM [1] | IC50 (KBV1; Homo sapiens, KB-V1, 72 h) [nM] | IC50 (KB cells; Homo sapiens, KB, 72 h) [nM] | IC50 (KB85; 72 h) [nM] | inhibition at 3 µM (KBV1; Homo sapiens) [%] | Tubulin Polym. % inhibition at 0.5 uM ([1]; 0.5 uM) | IC50 (KBV1) [nM] | IC50 (KB cells) [nM] | IC50 (KB85) [nM]
CN[C@H](C(=O)N[C@H](C(=O)N(C)[C@H](C(=O)N1CCC[C@H]1C(=O)OC)C(C)C)C(C)(C)C)C(C)(C)c1ccccc1 [Example 33, Methyl N,β,β-trimethyl-L-phenylalanyl-3-methyl-L-valyl-N-methyl-L-valyl-L-prolinate] (H-[NMePhe(β,β-Me2)][Tle][NMeV]P-OMe) | 19% | 1530 | 18 | 53 | – | – | – | – | –
CN[C@H](C(=O)N[C@H](C(=O)N(C)[C@H](C(=O)N1CCC[C@H]1C(=O)N1CCC[C@H]1C(=O)NCc1ccccc1)C(C)C)C(C)(C)C)C(C)(C)c1ccccc1 [Example 34, N,β,β-trimethyl-L-phenylalanyl-3-methyl-L-valyl-N-methyl-L-valyl-L-prolyl-N-benzyl-L-prolinamide] (H-[NMePhe(β,β-Me2)][Tle][NMeV]PP-NHBn) | 64% | 1950 | 0.25 | 4.2 | 5 | – | – | – | –
CN[C@H](C(=O)N[C@H](C(=O)N(C)[C@H](/C=C(\C)C(=O)N1CCC[C@H]1C(=O)O)C(C)C)C(C)(C)C)C(C)(C)c1ccccc1 [Example 36, N,β,β-trimethyl-L-phenylalanyl-N^1-{(1S,2E)-4-[(2S)-2-carboxypyrrolidin-1-yl]-1-isopropyl-3-methyl-4-oxobut-2-enyl}-N^1,3-dimethyl-L-valinamide] | 97% | – | 62 | 205 | 0 | – | – | – | –
CN[C@H](C(=O)N[C@H](C(=O)N(C)[C@H](/C=C(\C)C(=O)N1CCN(CCCN(C)C)CC1)C(C)C)C(C)(C)C)C(C)(C)c1ccccc1 [Example 38, N,β,β-trimethyl-L-phenylalanyl-N^1-((1S,2E)-4-{4-[3-(dimethylamino)propyl]piperazin-1-yl}-1-isopropyl-3-methyl-4-oxobut-2-enyl)-N^1,3-dimethyl-L-valinamide] | 75% | – | 20 | 529 | 0 | – | – | – | –
CN[C@H](C(=O)N[C@H](C(=O)N(C)[C@H](/C=C(\C)C(=O)N1CCN(Cc2ccccc2)CC1)C(C)C)C(C)(C)C)C(C)(C)c1ccccc1 [Example 39, N,β,β-trimethyl-L-phenylalanyl-N^1-[(1S,2E)-4-(4-benzylpiperazin-1-yl)-1-isopropyl-3-methyl-4-oxobut-2-enyl]-N^1,3-dimethyl-L-valinamide] | 29% | 366 | 15 | 22 | – | – | – | – | –
CN[C@H](C(=O)N[C@H](C(=O)N(C)[C@H](/C=C(\C)C(=O)N1C[C@H](O)C[C@H]1C(=O)OC)C(C)C)C(C)(C)C)C(C)(C)c1ccccc1 [Example 40, N,β,β-trimethyl-L-phenylalanyl-N^1-{(1S,2E)-4-[(2S,4R)-2-(methoxycarbonyl)-4-hydroxypyrrolidin-1-yl]-1-isopropyl-3-methyl-4-oxobut-2-enyl}-N^1,3-dimethyl-L-valinamide] | – | – | 3.5 | 116 | 4 | 93*** % | – | – | –
CN[C@H](C(=O)N[C@H](C(=O)N(C)[C@H](/C=C(\C)C(=O)N1CCC[C@@H]1C(=O)OC)C(C)C)C(C)(C)C)C(C)(C)c1ccccc1 [Example 41, N,β,β-trimethyl-L-phenylalanyl-N^1-{(1S,2E)-4-[(2R)-2-(methoxycarbonyl)pyrrolidin-1-yl]-1-isopropyl-3-methyl-4-oxobut-2-enyl}-N^1,3-dimethyl-L-valinamide] | 96% | 1100 | 16 | 51 | – | – | – | – | –
CN[C@H](C(=O)N[C@H](C(=O)N(C)[C@H](/C=C(\C)C(=O)N1C[C@H](O)C[C@H]1C(=O)O)C(C)C)C(C)(C)C)C(C)(C)c1ccccc1 [Example 42, N,β,β-trimethyl-L-phenylalanyl-N^1-{(1S,2E)-4-[(2S,4R)-2-carboxy-4-hydroxypyrrolidin-1-yl]-1-isopropyl-3-methyl-4-oxobut-2-enyl}-N^1,3-dimethyl-L-valinamide] | 96% | – | 184 | 1850 | 0 | – | – | – | –
CN[C@H](C(=O)N[C@H](C(=O)N(C)[C@H](/C=C(\C)C(=O)N1CCC[C@@H]1C(=O)O)C(C)C)C(C)(C)C)C(C)(C)c1ccccc1 [Example 43, N,β,β-trimethyl-L-phenylalanyl-N^1-{(1S,2E)-4-[(2R)-2-carboxypyrrolidin-1-yl]-1-isopropyl-3-methyl-4-oxobut-2-enyl}-N^1,3-dimethyl-L-valinamide] | 91% | – | 515 | 1580 | 0 | – | – | – | –
CN[C@H](C(=O)N[C@H](C(=O)N(C)[C@H](/C=C(\C)C(=O)N1CCC[C@H]1[C@H](OC)[C@@H](C)C(=O)N[C@@H](Cc1ccccc1)c1nccs1)C(C)C)C(C)(C)C)C(C)(C)C1CCCCC1 [Example 44, 3-cyclohexyl-N-methyl-L-valyl-N^1-{(1S,2E)-1-isopropyl-4-[(2S)-2-((1R,2R)-1methoxy-2-methyl-3-oxo-3-{[(1S)-2-phenyl-1-(1,3-thiazol-2-yl)ethyl]amino}propyl)pyrrolidin-1-yl]-3-methyl-4-oxobut-2-enyl}-N^1,3-dimethyl-L-valinamide] | 83% | 475 | 1.5 | 6.2 | – | – | – | – | –
CN[C@H](C(=O)N[C@H](C(=O)N(C)[C@H](/C=C(\C)C(=O)N1CCC[C@H]1C(=O)OC)C(C)C)C(C)(C)C)C(C)(C)C1CCCCC1 [Example 45, 3-cyclohexyl-N-methyl-L-valyl-N^1-{(1S,2E)-4-[(2S)-2-(methoxycarbonyl)pyrrolidin-1-yl]-1-isopropyl-3-methyl-4-oxobut-2-enyl}-N^1,3-dimethyl-L-valinamide] | 62(2) % | 493 | 3.7 | 16 | – | – | – | – | –
CN[C@H](C(=O)N[C@H](C(=O)N(C)[C@H](/C=C(\C)C(=O)N1CCC[C@H]1C(=O)O)C(C)C)C(C)(C)C)C(C)(C)C1CCCCC1 [Example 46, 3-cyclohexyl-N-methyl-L-valyl-N^1-{(1S,2E)-4-[(2S)-2-carboxypyrrolidin-1-yl]-1-isopropyl-3-methyl-4-oxobut-2-enyl}-N^1,3-dimethyl-L-valinamide] | 99% | – | 450 | 1720 | 1 | – | – | – | –
CN[C@H](C(=O)N[C@H](C(=O)N(C)[C@H](/C=C(\C)C(=O)N1CC=C[C@H]1C(=O)OC)C(C)C)C(C)(C)C)C(C)(C)c1ccccc1 [Example 47, N,β,β-trimethyl-L-phenylalanyl-N^1-{(1S,2E)-1-isopropyl-4-[(2S)-2-(methoxycarbonyl)-2,5-dihydro-1H-pyrrol-1-yl]-3-methyl-4-oxobut-2-enyl}-N^1,3-dimethyl-L-valinamide] | 88(2) % | 272 | 3.5 | 17 | – | – | – | – | –
CN[C@H](C(=O)N[C@H](C(=O)N(C)[C@H](/C=C(\C)C(=O)N1CC=C[C@H]1C(=O)O)C(C)C)C(C)(C)C)C(C)(C)c1ccccc1 [Example 48, N,β,β-trimethyl-L-phenylalanyl-N^1-{(1S,2E)-4-[(2S)-2-carboxy-2,5-dihydro-1H-pyrrol-1-yl]-1-isopropyl-3-methyl-4-oxobut-2-enyl}-N^1,3-dimethyl-L-valinamide] | 91(2) % | – | 58 | 184 | 15 | – | – | – | –
CN[C@H](C(=O)N[C@H](C(=O)N(C)[C@H](/C=C(\C)C(=O)N1CCCC[C@H]1C(=O)OC)C(C)C)C(C)(C)C)C(C)(C)c1ccccc1 [Example 49, N,β,β-trimethyl-L-phenylalanyl-N^1-{(1S,2E)-1-isopropyl-4-[(2S)-2-(methoxycarbonyl)piperidin-1-yl]-3-methyl-4-oxobut-2-enyl}-N^1,3-dimethyl-L-valinamide] | 62(2) % | 150 | 5.2 | 17 | – | – | – | – | –
CN[C@H](C(=O)N[C@H](C(=O)N(C)[C@H](/C=C(\C)C(=O)N1CCCC[C@H]1C(=O)O)C(C)C)C(C)(C)C)C(C)(C)c1ccccc1 [Example 50, N,β,β-trimethyl-L-phenylalanyl-N^1-{(1S,2E)-4-[(2S)-2-carboxypiperidin-1-yl]-1-isopropyl-3-methyl-4-oxobut-2-enyl}-N^1,3-dimethyl-L-valinamide] | 84(2) % | – | 64 | 270 | 9 | – | – | – | –
CN[C@H](C(=O)N[C@H](C(=O)N(C)[C@H](/C=C(\C)C(=O)N1CCC[C@H]1[C@H](OC)[C@@H](C)C(=O)N1C(=O)O[C@@H](c2ccccc2)[C@H]1C)C(C)C)C(C)(C)C)C(C)(C)C1CCCCC1 [Example 51, 3-cyclohexyl-N-methyl-L-valyl-N^1-[(1S,2E)-1-isopropyl-4-((2S)-2-{(1R,2R)-1-meyhoxy-2-methyl-3-[(4R,5S)-4-methyl-2-oxo-5-phenyl-1,3-oxazolidin-3-yl]-3-oxopropyl}pyrrolidin-1-yl)-3-methyl-4-oxobut-2-enyl]-N^1,3-dimethyl-L-valinamide] | 82% | – | – | – | – | – | 1770 | 22 | 61
